In article PMC12542817, “LaIT6: A Novel Insect-Selective K^+-Channel Toxin from Liocheles australasiae Scorpion Venom” (Molecules, 2025):
Where two headings read alike, the source gives them in different places. Where a SMILES comes first, the peptide text is derived from it. Where no end group is shown, it is not given here.

What was measured:
Shaker-IR K+ channel = molecular target: T1, Shaker-IR K+ channel (Drosophila melanogaster, UniProt P08510, DEL6-46); experiment: Two-electrode voltage clamp on Shaker-IR K+ channel expressed in Xenopus oocytes; assay type: biochemical; conditions: for IC50: TEVC in Xenopus laevis oocytes, ND96 pH 7.4, 18–22 °C, n ≥ 3 per concentration, read-out: IC50, inhibition of Shaker-IR K+ channel
T1 construct: expressed in transfected cells; host or cells: Xenopus laevis oocytes injected with in-vitro-transcribed cRNA
Experimental: Electrophysiological experiments were carried out in Xenopus laevis oocytes. Linearized plasmids encoding Shaker-IR, hKv1.1, and hKv1.2 channels were transcribed using the T7 mMESSAGE mMACHINE transcription kit (Ambion, Austin, TX, USA). Mature female animals were purchased from Nasco (Fort Atkinson, WI, USA) and were housed in the Aquatic Facility (KU Leuven) in compliance with the regulations of the European Union (EU) concerning the welfare of laboratory animals as declared in Directive 2010/63/EU. The use of X. laevis oocytes was approved by the Animal Ethics Committee of the KU Leuven with license number P186/2019. Stage V–VI oocytes were collected from anesthetized female X. laevis frogs as previously described, with the frogs anesthetized by placement in 0.1% tricaine solution (amino benzoic acid ethyl ester; Merck, Rahway, NJ, USA). Oocyte microinjection was performed using a microinjector (World Precision Instruments, Sarasota, FL, USA), with a programmed cRNA injection volume of 4–10 nL, depending on the channel subtype. The oocytes were incubated in an MBS solution (88 mM NaCl, 1 mM KCl, 2.5 mM NaHCO3, 1 mM MgSO4, and 5 mM HEPES, pH 7.8) supplemented with 50 mg/L gentamicin sulfate and 90 mg/L theophylline. Electrophysiological measurements were performed at room temperature (18–22 °C) using the two-electrode voltage clamp (TEVC) technique. Data were obtained using a GeneClamp 500 amplifier (Axon Instruments, Burlingame, CA, USA), and Clampex9 software (Axon Instruments, Union City, CA, USA) was used for data acquisition and storage. Glass micropipettes were produced using glass capillaries (borosilicate WPI 1B120-6) and drawn in a WPI (World Precision Instruments, Sarasota, FL, USA) manual stretcher. The bath and perfusion solutions were ND96 (96 mM NaCl, 2 mM KCl, 1.8 mM CaCl2, 2 mM MgCl2, and 5 mM HEPES, pH 7.4). Whole-cell currents of oocytes were recorded 1 to 3 days after injection. Current and voltage electrodes were filled with 3 M KCl, and their resistance was adjusted from 0.5 to 1.5 MΩ. […]

[1] = system: mice (male Slc:ICR strain); experiment: Mammalian toxicity, intracerebroventricular injection into mice; assay type: in vivo, mouse; conditions: injection dose 50 nmol/kg, in PBS, male Slc:ICR mice 20 g, three animals, monitored for up to 24 h
Experimental: (§1) The insecticidal activity was evaluated as previously described. In this study, we used crickets (Acheta domesticus, 45–55 mg), houseflies (Musca domestica, 13–17 mg), silkworms (Bombyx mori, 225–275 mg), and cockroaches (Periplaneta americana, 75–225 mg). Each peptide in distilled water was injected into the abdominal region of insects. As a negative control, distilled water was used. Ten insects were used for each dose, except for doses of 3.1 and 6.3 nmol in LaIT6(R24A), for which 15 and 20 insects were used, respectively. The number of dead insects was counted 48 h after injection (24 h after injection in the case of houseflies). […] Toxicity to mammals was evaluated as previously described. The sample solution in a PBS buffer was injected intracerebroventricularly into mice (male Slc:ICR strain, 20 g) after anesthetizing with isoflurane. As a negative control, PBS buffer was used. Three animals were used for each measurement, and toxic symptoms were monitored for up to 24 h. The experimental protocol was approved by the Ethical Committee for the Welfare of Animals at Kyoto University.

[2] = system: crickets (Acheta domesticus); experiment: Insecticidal activity against crickets (injection, LD50); assay type: in vivo; conditions: injection into abdominal region in distilled water; Acheta domesticus 45–55 mg; ten insects per dose; dead insects counted 48 h after injection; brackets = 95% confidence interval
Experimental: as §1

T1 sequence (P08510 with tags, fused parts or gaps DEL6-46): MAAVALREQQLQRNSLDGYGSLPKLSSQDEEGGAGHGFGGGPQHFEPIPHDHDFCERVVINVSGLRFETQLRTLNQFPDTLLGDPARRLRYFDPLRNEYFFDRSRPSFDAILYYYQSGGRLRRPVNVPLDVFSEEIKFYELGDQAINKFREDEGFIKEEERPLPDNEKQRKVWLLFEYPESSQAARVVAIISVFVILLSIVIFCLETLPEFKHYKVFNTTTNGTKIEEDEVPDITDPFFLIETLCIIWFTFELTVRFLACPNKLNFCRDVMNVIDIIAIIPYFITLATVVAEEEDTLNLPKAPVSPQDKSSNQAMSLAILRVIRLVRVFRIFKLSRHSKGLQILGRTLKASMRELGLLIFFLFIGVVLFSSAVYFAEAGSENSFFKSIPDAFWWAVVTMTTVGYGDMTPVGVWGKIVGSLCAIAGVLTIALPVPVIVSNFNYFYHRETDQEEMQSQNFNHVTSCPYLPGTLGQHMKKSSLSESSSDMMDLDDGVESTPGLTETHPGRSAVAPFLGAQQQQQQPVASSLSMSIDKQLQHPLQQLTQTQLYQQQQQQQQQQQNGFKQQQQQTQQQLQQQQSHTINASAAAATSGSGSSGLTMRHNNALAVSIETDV

Molecule: CC[C@H](C)[C@@H]1NC(=O)[C@@H]2CSSC[C@H](NC(=O)[C@@H]3CCCN3C(=O)[C@@H](NC(=O)[C@H](CC(N)=O)NC(=O)[C@@H]3CCCN3C(=O)[C@@H]3CCCN3C(=O)[C@@H](NC(=O)[C@@H](N)CO)C(C)C)[C@@H](C)CC)C(=O)N[C@@H](CCC(N)=O)C(=O)N[C@@H](C(C)C)C(=O)N[C@@H]([C@@H](C)O)C(=O)N[C@@H](CC(N)=O)C(=O)N[C@@H](CCC(N)=O)C(=O)N[C@H]3CSSC[C@H](NC(=O)[C@H](CCCNC(=N)N)NC(=O)CNC(=O)[C@H](CC(N)=O)NC1=O)C(=O)N[C@@H](CCCCN)C(=O)N[C@H](C(=O)N[C@@H](Cc1ccc(O)cc1)C(N)=O)CSSC[C@H](NC(=O)[C@@H]1CCCN1C(=O)[C@H](CCCCN)NC(=O)[C@@H]1CCCN1C3=O)C(=O)N[C@@H](CCCNC(=N)N)C(=O)N[C@@H](CCC(=O)O)C(=O)N[C@@H](C)C(=O)N[C@@H]([C@@H](C)O)C(=O)NCC(=O)N[C@@H](CCCNC(=N)N)C(=O)N1CCC[C@H]1C(=O)N[C@@H](CC(N)=O)C(=O)N[C@@H](CO)C(=O)N[C@@H](CCCCN)C(=O)N2 [LaIT6] (HELM PEPTIDE1{S.V.P.P.N.I.P.C.Q.V.T.N.Q.C.P.K.P.C.R.E.A.T.G.R.P.N.S.K.C.I.N.G.R.C.K.C.Y.[am]}$PEPTIDE1,PEPTIDE1,8:R3-29:R3|PEPTIDE1,PEPTIDE1,14:R3-34:R3|PEPTIDE1,PEPTIDE1,18:R3-36:R3$$$V2.0)
- IC50 (Shaker-IR K+ channel; 95% CI 4.8–14 nM): 8.2 nM
- Mammalian toxicity (toxic symptoms) in mice [1]: did not observe any toxic symptoms

Molecule: SVPPNIPCQVTNQCPKPCREATGRPNSKCINGRCKCY-OH (disulfide (positions not given here)) [LaIT6(COOH), LaIT6 analog, C-terminal amide group converted to a carboxyl group]
- LD50, insecticidal activity against crickets [2]: 19 (14–25) nmol/g

Molecule: CC[C@H](C)[C@@H]1NC(=O)[C@@H]2CSSC[C@H](NC(=O)[C@@H]3CCCN3C(=O)[C@@H](NC(=O)[C@H](CC(N)=O)NC(=O)[C@@H]3CCCN3C(=O)[C@@H]3CCCN3C(=O)[C@@H](NC(=O)[C@@H](N)CO)C(C)C)[C@@H](C)CC)C(=O)N[C@@H](CCC(N)=O)C(=O)N[C@@H](C(C)C)C(=O)N[C@@H]([C@@H](C)O)C(=O)N[C@@H](CC(N)=O)C(=O)N[C@@H](CCC(N)=O)C(=O)N[C@H]3CSSC[C@H](NC(=O)[C@H](CCCNC(=N)N)NC(=O)CNC(=O)[C@H](CC(N)=O)NC1=O)C(=O)N[C@@H](CCCCN)C(=O)N[C@H](C(=O)N[C@@H](Cc1ccc(O)cc1)C(N)=O)CSSC[C@H](NC(=O)[C@@H]1CCCN1C(=O)[C@H](CCCCN)NC(=O)[C@@H]1CCCN1C3=O)C(=O)N[C@@H](CCCNC(=N)N)C(=O)N[C@@H](CCC(=O)O)C(=O)N[C@@H](C)C(=O)N[C@@H]([C@@H](C)O)C(=O)NCC(=O)N[C@@H](CCCNC(=N)N)C(=O)N1CCC[C@H]1C(=O)N[C@@H](CC(N)=O)C(=O)N[C@@H](CO)C(=O)N[C@@H](C)C(=O)N2 [LaIT6(K28A)] (HELM PEPTIDE1{S.V.P.P.N.I.P.C.Q.V.T.N.Q.C.P.K.P.C.R.E.A.T.G.R.P.N.S.A.C.I.N.G.R.C.K.C.Y.[am]}$PEPTIDE1,PEPTIDE1,8:R3-29:R3|PEPTIDE1,PEPTIDE1,14:R3-34:R3|PEPTIDE1,PEPTIDE1,18:R3-36:R3$$$V2.0)
- IC50 (Shaker-IR K+ channel; 95% CI 0.81–6.7 µM): 2300 nM
- IC50 on Shaker-IR relative to wild-type LaIT6 (times higher) (Shaker-IR K+ channel; ratio of IC50 LaIT6(K28A) to IC50 LaIT6): approximately 300 times
